# In US9249163B2, “PDE10a inhibitors for the treatment of type II diabetes” (Janssen Pharmaceutica, NV, priority 2013, dated 2016):
# Counter-ions that a name gives are not always drawn.
# How the values were obtained:
# [1] = molecular target: Rat recombinant PDE10a (rPDE10a) (Rattus norvegicus (Rat), UniProt Q9QYJ6); assay: In vitro assay PDE10a (rat recombinant PDE10a, SPA); assay type: biochemical; conditions: 60 nM cAMP, 60 min at rt, read-out: rPDE10a2 IC50
# Method: Rat recombinant PDE10a (rPDE10a) was expressed in Sf9 cells using a recombinant rPDE10a baculovirus construct. Cells were harvested after 48 h of infection and the rPDE10a protein was purified by metal chelate chromatography on Ni-sepharose 6FF. Tested compounds were dissolved and diluted in 100% DMSO to a concentration 100 fold of the final concentration in the assay. Compound dilutions (0.4 μL) were added in 384 well plates to 20 μL of incubation buffer (50 mM Tris pH 7.8, 8.3 mM MgCl2, 1.7 mM EGTA). 10 μL of rPDE10a enzyme in incubation buffer was added and the reaction was started by addition of 10 μL substrate to a final concentration of 60 nM cAMP and 0.008 μCi ^3H-cAMP. The reaction was incubated for 60 min at rt. After incubation, the reaction was stopped with 20 μL of 17.8 mg/mL PDE SPA beads. After sedimentation of the beads during 30 min the radioactivity was measured in a Perkin Elmer Topcount scintillation counter and results were expressed as cpm. For blank values the enzyme was omitted from the reaction and replaced by incubation buffer. Control values were obtained by addition of a final concentration of 1% DMSO instead of compound.
# [2] = molecular target: Human recombinant PDE10A2 (Homo sapiens (Human), UniProt Q9Y233); assay: In vitro hPDE10a (human recombinant PDE10A2, scintillation proximity assay); assay type: biochemical; conditions: human recombinant PDE10A2, 60 nM cAMP, 60 min at room temperature; read-out: hPDE10a2 IC50
# Sequence of Human recombinant PDE10A2 (Q9Y233 267-1055): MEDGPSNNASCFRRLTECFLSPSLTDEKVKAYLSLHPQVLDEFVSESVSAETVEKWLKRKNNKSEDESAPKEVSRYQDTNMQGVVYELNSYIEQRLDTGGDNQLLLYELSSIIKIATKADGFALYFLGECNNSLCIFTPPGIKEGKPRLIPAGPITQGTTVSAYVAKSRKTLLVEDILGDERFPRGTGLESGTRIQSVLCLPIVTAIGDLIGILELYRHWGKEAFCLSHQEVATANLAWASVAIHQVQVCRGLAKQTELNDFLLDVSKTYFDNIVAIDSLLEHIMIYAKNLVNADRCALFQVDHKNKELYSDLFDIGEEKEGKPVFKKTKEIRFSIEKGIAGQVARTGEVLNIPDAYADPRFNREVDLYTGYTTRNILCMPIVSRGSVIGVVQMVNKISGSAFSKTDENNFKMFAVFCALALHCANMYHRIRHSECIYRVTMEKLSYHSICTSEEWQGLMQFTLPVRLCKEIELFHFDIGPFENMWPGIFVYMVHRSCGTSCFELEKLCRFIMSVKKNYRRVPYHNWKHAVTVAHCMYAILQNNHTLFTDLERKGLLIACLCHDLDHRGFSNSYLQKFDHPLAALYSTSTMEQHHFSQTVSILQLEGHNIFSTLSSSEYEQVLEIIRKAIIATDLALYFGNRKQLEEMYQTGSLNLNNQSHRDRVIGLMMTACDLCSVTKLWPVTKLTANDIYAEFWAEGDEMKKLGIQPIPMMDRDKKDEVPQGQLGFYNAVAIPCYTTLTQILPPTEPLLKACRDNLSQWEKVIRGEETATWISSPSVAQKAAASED
# Method: Human recombinant PDE10A2 was expressed in Sf9 cells, using a recombinant baculovirus construct containing the full length sequence containing a 6×His sequence following the start Met to allow metal affinity purification of the recombinant protein. Cells were harvested and the phosphodiesterase protein was purified by metal chelate chromatography on Ni-sepharose 6FF.
# The affinity of the compounds of Formula (I) for phophodiesterases (PDE) was measured by a scintillation proximity assay (SPA). PDE Yttrium Silicate SPA beads allow PDE activity to be measured by direct binding of the primary phosphate groups of non-cyclic AMP or GMP to the beads via a complex iron chelation mechanism. The amount of bound tritiated product ([^3H]-AMP) is measured by liquid scintillation counting.
# The compounds were dissolved and diluted in 100% DMSO in polystyrene plates to a concentration of 100-fold the final concentration in the assay. Human PDE10A enzyme solution (10 μL) was added to 20 μL, of incubation buffer (50 mM Tris pH 7.8, 8.3 mM MgCl2, 1.7 mM EGTA), 10 μL, substrate solution consisting of a mixture of non-tritiated and tritiated substrate (60 nM cAMP, 0.008 μCi ^3H-cAMP), and 0.4 μL, compound in 100% DMSO in a 384-well plate, and incubated for 60 min at room temperature. After incubation, the reaction was stopped with 20 μL, of stop solution, consisting of PDE SPA beads (17.8 mg beads/mL in 18 mM zinc sulphate). After sedimentation of the beads for 30 min, the radioactivity was measured in a Perkin Elmer Topcount scintillation counter and results were expressed as cpm. To measure the low control, no enzyme was added to the reaction mixture.
# Data were calculated as the percentage of inhibition of total activity measured in the absence of test compound (% control).
# Sequence of Rat recombinant PDE10a (rPDE10a) (Q9QYJ6 whole entry): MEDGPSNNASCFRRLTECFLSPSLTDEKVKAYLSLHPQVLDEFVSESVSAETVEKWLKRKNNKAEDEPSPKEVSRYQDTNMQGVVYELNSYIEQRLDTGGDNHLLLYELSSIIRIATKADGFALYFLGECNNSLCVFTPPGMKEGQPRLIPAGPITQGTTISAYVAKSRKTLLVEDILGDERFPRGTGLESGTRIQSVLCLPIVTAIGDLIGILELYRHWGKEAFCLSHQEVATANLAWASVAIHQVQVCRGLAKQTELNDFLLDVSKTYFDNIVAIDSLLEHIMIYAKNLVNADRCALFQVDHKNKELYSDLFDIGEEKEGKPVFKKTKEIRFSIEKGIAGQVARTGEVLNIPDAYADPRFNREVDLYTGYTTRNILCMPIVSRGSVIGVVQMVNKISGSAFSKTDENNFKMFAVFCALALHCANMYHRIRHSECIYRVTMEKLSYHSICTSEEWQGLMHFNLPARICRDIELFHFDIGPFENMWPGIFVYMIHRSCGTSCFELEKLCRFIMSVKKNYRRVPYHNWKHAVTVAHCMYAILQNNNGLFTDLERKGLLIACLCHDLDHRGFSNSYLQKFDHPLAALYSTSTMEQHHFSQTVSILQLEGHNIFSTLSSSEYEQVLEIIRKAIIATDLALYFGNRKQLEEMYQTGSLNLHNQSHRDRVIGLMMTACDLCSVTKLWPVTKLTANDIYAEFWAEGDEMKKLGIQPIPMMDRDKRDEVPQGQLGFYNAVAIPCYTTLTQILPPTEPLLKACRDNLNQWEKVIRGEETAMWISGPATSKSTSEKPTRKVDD
smiles,measurement,setting,value
"O=c1[nH]c2ccc(-c3cnc(N4CCOCC4)c4nc(CCc5ccc6ccccc6n5)cn34)cc2o1 [Cpd 64, 6-(8-morpholino-2-(2-(quinolin-2-yl)ethyl)imidazo[1,2-a]pyrazin-5-yl)benzo[d]oxazol-2(3H)-one trifluoroacetic acid salt]",IC50,[1],22 nM
same,IC50,[2],13 nM
"O=c1[nH]ncn1-c1ccc(-c2cnc(N3CCOCC3)c3nc(CCc4ccc5ccccc5n4)cn23)cc1 [Cpd 65, 4-(4-(8-Morpholino-2-(2-(quinolin-2-yl)ethyl)imidazo[1,2-a]pyrazin-5-yl)phenyl)-1H-1,2,4-triazol-5(4H)-one]",IC50,[1],60 nM
same,IC50,[2],38 nM
"O=C(O)CNc1ccc(-c2cnc(N3CCOCC3)c3nc(/C=C/c4ccc5ccccc5n4)cn23)cn1 [Cpd 66, (E)-2-(5-(8-Morpholino-2-(2-(quinolin-2-yl)vinyl)imidazo[1,2-a]pyrazin-5-yl)pyridin-2-ylamino)acetic acid trifluoroacetic acid salt]",IC50,[1],3 nM
same,IC50,[2],2 nM
"c1ccc2nc(CCc3cn4c(-c5ccc(-c6nnc[nH]6)nc5)cnc(N5CCOCC5)c4n3)ccc2c1 [Cpd 67, 4-(5-(6-(4H-1,2,4-Triazol-3-yl)pyridin-3-yl)-2-(2-(quinolin-2-yl)ethyl)imidazo[1,2-a]pyrazin-8-yl)morpholine]",IC50,[1],4 nM
same,IC50,[2],5 nM
"c1ccc2nc(SCc3cn4c(-c5ccc(-c6nnn[nH]6)nc5)cnc(N5CCOCC5)c4n3)ccc2c1 [Cpd 70, 4-(5-(6-(1H-Tetrazol-5-yl)pyridin-3-yl)-2-((quinolin-2-ylthio)methyl)imidazo[1,2-a]pyrazin-8-yl)morpholine]",IC50,[1],1 nM
same,IC50,[2],2 nM
"O=C(Nc1ccc(-c2cnc(N3CCOCC3)c3nc(/C=C/c4ccc5ccccc5n4)cn23)cc1)N(CCO)CCO [Cpd 71, (E)-1,1-bis(2-hydroxyethyl)-3-(4-(8-morpholino-2-(2-(quinolin-2-yl)vinyl)imidazo[1,2-a]pyrazin-5-yl)phenyl)urea]",IC50,[1],63 nM
same,IC50,[2],44 nM
"O=C(NCCO)Nc1ccc(-c2cnc(N3CCOCC3)c3nc(/C=C/c4ccc5ccccc5n4)cn23)cc1 [Cpd 72, (E)-1-(2-Hydroxyethyl)-3-(4-(8-morpholino-2-(2-(quinolin-2-yl)vinyl)imidazo[1,2-a]pyrazin-5-yl)phenyl)urea]",IC50,[1],46 nM
same,IC50,[2],31 nM
"O=S(=O)(NCCO)c1ccc(-c2cnc(N3CCOCC3)c3nc(/C=C/c4ccc5ccccc5n4)cn23)cc1 [Cpd 73, (E)-N-(2-Hydroxyethyl)-4-(8-morpholino-2-(2-(quinolin-2-yl)vinyl)imidazo[1,2-a]pyrazin-5-yl)benzenesulfonamide]",IC50,[1],40 nM
same,IC50,[2],26 nM
"Oc1nc(-c2cnc(N3CCOCC3)c3nc(COc4ccc5ccccc5n4)cn23)no1 [Cpd 75, 3-(8-Morpholino-2-((quinolin-2-yloxy)methyl)imidazo[1,2-a]pyrazin-5-yl)-1,2,4-oxadiazol-5-ol]",IC50,[1],< 1 nM
same,IC50,[2],< 1 nM
"c1ccc2nc(CCc3cn4c(-c5ccc(-c6nnn[nH]6)nc5)cnc(N5CCOCC5)c4n3)ccc2c1 [Cpd 77, 4-(5-(6-(1H-Tetrazol-5-yl)pyridin-3-yl)-2-(2-(quinolin-2-yl)ethyl)imidazo[1,2-a]pyrazin-8-yl)morpholine]",IC50,[1],< 30 nM
same,IC50,[2],1 nM
"CS(=O)(=O)Nc1ccc(-c2cnc(N3CCOCC3)c3nc(CCc4ccc5ccccc5n4)cn23)cn1 [Cpd 78, N-(5-(8-Morpholino-2-(2-(quinolin-2-yl)ethyl)imidazo[1,2-a]pyrazin-5-yl)pyridin-2-yl)methanesulfonamide]",IC50,[1],< 1 nM
same,IC50,[2],1 nM
"Oc1nc2ncc(-c3cnc(N4CCOCC4)c4nc(CCc5ccc6ccccc6n5)cn34)cc2[nH]1 [Cpd 79, 6-(8-Morpholino-2-(2-(quinolin-2-yl)ethyl)imidazo[1,2-a]pyrazin-5-yl)-1H-imidazo[4,5-b]pyridin-2-ol]",IC50,[1],33 nM
same,IC50,[2],7 nM
"C(=C\c1cn2c(-c3ccc(N4CCNCC4)nc3)cnc(C3CCOCC3)c2n1)/c1ccc2ccccc2n1 [Cpd 80, (E)-2-(2-(5-(6-(piperazin-1-yl)pyridin-3-yl)-8-(tetrahydro-2H-pyran-4-yl)imidazo[1,2-a]pyrazin-2-yl)vinyl)quinoline trifluoroacetic acid salt]",IC50,[1],562 nM
same,IC50,[2],617 nM
COc1cc(-c2ncc(-c3ccc(N4CCNCC4)nc3)n3cc(/C=C/c4ccc5ccccc5n4)nc23)ccn1 [Cpd 81],IC50,[1],91 nM
same,IC50,[2],245 nM
COc1cc(-c2ncc(-c3ccc(N4CCNCC4)nc3)n3cc(COc4ccc5ccccc5n4)nc23)ccn1 [Cpd 82],IC50,[1],245 nM
same,IC50,[2],282 nM
"NC(=O)c1ccc(-c2cnc(N3CCOCC3)c3nc(COc4ccc5ccccc5n4)cn23)cn1 [Cpd 84, 5-(8-Morpholino-2-((quinolin-2-yloxy)methyl)imidazo[1,2-a]pyrazin-5-yl)picolinamide]",IC50,[1],8 nM
same,IC50,[2],16 nM
"CS(=O)(=O)Nc1ccc(-c2cnc(N3CCOCC3)c3nc(COc4ccc5ccccc5n4)cn23)cn1 [Cpd 85, N-(5-(8-Morpholino-2-((quinolin-2-yloxy)methyl)imidazo[1,2-a]pyrazin-5-yl)pyridin-2-yl)methanesulfonamide]",IC50,[1],2 nM
same,IC50,[2],1 nM
"NS(=O)(=O)c1ccc(-c2cnc(N3CCOCC3)c3nc(COc4ccc5ccccc5n4)cn23)cn1 [Cpd 86, 5-(8-Morpholino-2-((quinolin-2-yloxy)methyl)imidazo[1,2-a]pyrazin-5-yl)pyridine-2-sulfonamide trifluoroacetic acid salt]",IC50,[1],16 nM
same,IC50,[2],14 nM
"NS(=O)(=O)c1ccc(-c2cnc(N3CCOCC3)c3nc(COc4ccc5ccccc5n4)cn23)cc1 [Cpd 87, 4-(8-Morpholino-2-((quinolin-2-yloxy)methyl)imidazo[1,2-a]pyrazin-5-yl)benzenesulfonamide]",IC50,[1],2 nM
same,IC50,[2],1 nM
"CC(=O)NS(=O)(=O)c1ccc(-c2cnc(N3CCOCC3)c3nc(COc4ccc5ccccc5n4)cn23)cc1 [Cpd 88, N-((4-(8-Morpholino-2-((quinolin-2-yloxy)methyl)imidazo[1,2-a]pyrazin-5-yl)phenyl)sulfonyl)acetamide]",IC50,[1],12 nM
same,IC50,[2],9 nM
"c1ccc2nc(OCc3cn4c(-c5ccc(-c6nnn[nH]6)cc5)cnc(N5CCOCC5)c4n3)ccc2c1 [Cpd 90, 4-(5-(4-(1H-Tetrazol-5-yl)phenyl)-2-((quinolin-2-yloxy)methyl)imidazo[1,2-a]pyrazin-8-yl)morpholine]",IC50,[1],1 nM
same,IC50,[2],2 nM
"Oc1nc2ncc(-c3cnc(N4CCOCC4)c4nc(/C=C/c5ccc6ccccc6n5)cn34)cc2[nH]1 [Cpd 94, (E)-6-(8-Morpholino-2-(2-(quinolin-2-yl)vinyl)imidazo[1,2-a]pyrazin-5-yl)-3H-imidazo[4,5-b]pyridin-2-ol]",IC50,[1],3 nM
same,IC50,[2],8 nM
"C(=C\c1cn2c(-c3ccc(-c4nnn[nH]4)nc3)cnc(N3CCOCC3)c2n1)/c1ccc2ccccc2n1 [Cpd 96, (E)-4-(5-(6-(1H-Tetrazol-5-yl)pyridin-3-yl)-2-(2-(quinolin-2-yl)vinyl)imidazo[1,2-a]pyrazin-8-yl)morpholine]",IC50,[1],< 1 nM
same,IC50,[2],3 nM
